Laboratory results as given in PubChem BioAssay AID720587 (Broad Institute, 2013).

tested on: A673 Ewing sarcoma viability, CellTiter-Glo ATP luminescence, 72 h; test: EWS/Fli1-dependent A673 cell killing, confirmation, CellTiter-Glo luminescence, cherry-pick retest (AID 720587)

Structure (SMILES)	AC35 [µM]
C[C@H](CO)N1C[C@H](C)[C@H](CN(C)CC2CCCCC2)Oc2ccc(NC(=O)CCCCCC(=O)Nc3ccccc3N)cc2CC1=O	10.5
O=C(NC(c1ccc(F)cc1)c1ccc2ccccc2n1)C1CCN(Cc2cccc(C(F)(F)F)c2)CC1 (centres undefined)	14.6
COc1ccc(OC)c(Cc2cnc3nc(N)nc(N)c3c2C)c1	0.196
C[C@@H]1CN([C@H](C)CO)C(=O)c2cccc(N(C)C)c2O[C@@H]1CN(C)Cc1ccc(C(=O)Nc2ccccc2N)cc1	19.6
CN1C/C(=C/c2ccsc2)C(=O)/C(=C/c2ccsc2)C1	8.67
CN1c2ccc(-c3ccc(C#N)cc3)cc2[C@H]2[C@H](CCN2S(=O)(=O)c2cccc(F)c2)[C@@H]1CO	4.45
COc1ccc(CC(N)c2csc(NC(=O)Nc3cccc(C(F)(F)F)c3)n2)cc1 (centres undefined)	6.74
Cc1cc(C(=O)Nc2ccc3c(c2)C(=O)N(C)[C@@H]2CC[C@@H](CC(=O)NCc4ccc(-c5ccccc5)cc4)O[C@H]2CO3)no1	8.06
O=c1c2ccccc2nc(/C=C/c2cc(Br)ccc2O)n1CCCO	9.12
O=C(O)c1ccccc1C(=O)Nc1ccc(Oc2ccc3ccccc3c2)cc1	15.6
CCOc1cc(/C=N/Nc2cc(C)nc(-n3nc(C)cc3C)n2)ccc1O	1.77
O=C1NC2C(=CC(O)C(O)C2O)c2cc3c(cc21)OCO3 (centres undefined)	0.837
Cc1nn(-c2ccc(F)cc2)c2nc(N)c(C#N)c(-c3ccc(O)c(O)c3)c12	8.63
COc1ccc(C(CCNCc2ccc(OC(C)C)cc2)C(C)C)cc1 (centres undefined)	12.6
COC(=O)C[C@@H]1CC[C@@H]2[C@@H](COc3ccc(NC(=O)Nc4cccc(F)c4)cc3C(=O)N2C)O1	13.5
CC(=NNc1ccc2ccccc2n1)c1ccccn1	0.234
CCN(Cc1ccccc1)c1ccc(/C=N/N=C(N)N)cc1	6.3
C[C@@H]1CN([C@H](C)CO)C(=O)CCCn2nncc2CO[C@H]1CN(C)Cc1ccc(Oc2ccccc2)cc1	21.1
COc1cc2c(cc1NC(=O)CN(C)Cc1ccc(OC)c(OC)c1)oc1ccccc12	21.5
Cc1c(N=Cc2cc(Br)cc(Br)c2O)cccc1C(=O)O	20
C[C@H]1CN([C@@H](C)CO)C(=O)Cc2cc(NC(=O)C3CC3)ccc2O[C@H]1CN(C)S(=O)(=O)c1ccc(Cl)cc1	15.6
COC(=O)C1=C(C)N(Cc2ccccc2C(F)(F)F)C(=NCc2ccc(OC)cc2)NC1c1ccc(C(F)(F)F)cc1 (centres undefined)	13.1
O=C(NCc1cccnc1)C1Cc2c(-c3ccc(Cl)cc3)ccnc2O1 (centres undefined)	7.98

Structure (SMILES)	AC35 [µM]
O=C1c2ccccc2C(=O)N1CCCCNc1ccccc1	10.8
COCCOC(=O)N1C(=O)[C@@]2(c3cc(C#CCC(C(=O)OC)C(=O)OC)ccc31)[C@H](c1ccccc1OCCO)N1[C@H](c3ccccc3)[C@H](c3ccccc3)OC(=O)[C@H]1[C@@H]2C(=O)N1CCN(c2ncccn2)CC1	5.04
N#CC1=C(N)Oc2cc(N)ccc2C1c1cccc(Br)c1 (centres undefined)	0.505
O=c1c(Cl)cc(Cl)nn1-c1ccccc1	5.55
COc1cccc(-c2cc(NC=O)c3ncc(-c4ccc(C(C)=O)cc4)n3c2)c1	4.09
O=C(/C=C/c1cc(Br)ccc1O)c1ccco1	12.3
O=C(O)c1ccc(N/N=C/c2ccc3nccnc3c2)cc1	15
CC(C)N1C/C(=C/c2cccnc2)C(=O)/C(=C/c2cccnc2)C1	10.5
C[C@H]1O[C@@H](O[C@H]2[C@@H](O)C[C@H](O[C@H]3[C@@H](O)C[C@H](O[C@H]4CC[C@@]5(C)[C@H](CC[C@@H]6[C@@H]5C[C@@H](O)[C@]5(C)[C@@H](C7=CC(=O)OC7)CC[C@]65O)C4)O[C@@H]3C)O[C@@H]2C)C[C@H](O)[C@@H]1O	0.173
N/C(=C\C(=O)c1cc(Cl)ccc1O)C(Cl)(Cl)Cl	4
COc1ccc([Si](C)(C)[C@H]2[C@H](CCO)O[C@@]3(C(=O)N(c4ccccc4)c4ccccc43)[C@@H]2C)cc1	7.61
Cc1cc2c(C(C)C)c(O)c(O)c(C=O)c2c(O)c1-c1c(C)cc2c(C(C)C)c(O)c(O)c(C=O)c2c1O	6.09
Cc1ccc(S(=O)(=O)Nc2ccc3c(c2)C(=O)N([C@@H](C)CO)C[C@H](C)[C@@H](CN(C)Cc2ccc(C(F)(F)F)cc2)OCCCC[C@@H](C)O3)cc1	13.8
Cc1c(Cc2ccc3c(c2)OCO3)sc(NC(=O)C(C)(C)C)c1C#N	14.9
C[C@@H]1CN([C@@H](C)CO)C(=O)c2cccc(NS(=O)(=O)c3ccccc3)c2O[C@@H]1CN(C)Cc1ccc(C(=O)Nc2ccccc2N)cc1	8.86
O=C(N/N=C/c1ccc[nH]1)c1cc(-c2ccc(Cl)cc2)nc2ccccc12	11.6
O=C(c1nnsc1S(=O)c1ccc(Cl)cc1)N1CCOCC1 (centres undefined)	5.46
N#C[C@H]1[C@H](c2ccc(-c3ccccc3F)cc2)[C@@H](CO)N1C(=O)Cc1ccccc1	10.2
C[C@]12CCC3C(CCC4=CC(O)CC[C@@]43/C=N/O)C1(O)CCC2C1=CC(=O)OC1 (some centres undefined)	0.569
COc1cc(-c2cnc3c(NC=O)cc(-c4cccc(NC(C)=O)c4)cn23)cc(OC)c1OC	0.371
CCCN1C(=O)/C(=C/c2nc3ccccc3c(=O)[nH]2)c2ccccc21	22
CCCCNC1=CC(=O)C(=O)c2ccccc21	2.77
O=C(C1CC1)N1C[C@@H]2N[C@H](C1)C2c1ccc(/C=C/c2ccccc2)cc1 (some centres undefined)	15.2

Structure (SMILES)	AC35 [µM]
O=c1[nH]c(=O)n([C@H]2C[C@H](O)[C@@H](CO)O2)cc1C(F)(F)F	4.17
CC(=O)OC1CC(OC2C(O)CC(OC3C(O)CC(OC4CCC5(C)C(CCC6C5CCC5(C)C(C7=CC(=O)OC7)C(O)CC65O)C4)OC3C)OC2C)OC(C)C1OC1OC(CO)C(O)C(O)C1O (centres undefined)	1.26
N#C[C@@H]1[C@H](c2ccc(C#Cc3ccc(F)cc3)cc2)[C@@H](CO)N1C(=O)Nc1ccc(F)cc1	12.3
OCC1OC(n2cnc3c(NCc4ccco4)ncnc32)C(O)C1O (centres undefined)	4.04
CCN1/C(=C/C=C/c2oc3ccc(-c4ccccc4)cc3[n+]2CC)Oc2ccc(-c3ccccc3)cc21	1.98
COC1C(C)OC(OC2CC(C)(O)Cc3cc4c(c(O)c32)C(=O)c2c(O)cc3c(c2C4=O)OC2OC3(C)C(O)C(N(C)C)C2O)C(OC)C1(C)OC (centres undefined)	0.0582
O=C(Nc1cccc(S(=O)(=O)N2CCCC2)c1)c1ccc(Cl)nc1	6.28
CCCCCCCCCCCCCCCCn1cc[n+](C)c1	12.6
Cc1ccc(S(=O)(=O)N(C)C[C@@H]2Oc3ccc(NC(=O)CCCCCC(=O)Nc4ccccc4N)cc3CC(=O)N([C@@H](C)CO)C[C@@H]2C)cc1	15.3
C[C@@H]1CN([C@H](C)CO)S(=O)(=O)c2ccc(C#Cc3ccncc3)cc2O[C@@H]1CN(C)C(=O)Nc1ccc2c(c1)OCO2	19.4
CCOc1cc(N2CCC(O)CC2)ccc1Nc1ncc2c(n1)N(C)c1ccccc1C(=O)N2C	21
Cc1ccc2c(c1)C(=O)N1[C@H]3c4cc(Br)ccc4OC[C@@H]3[C@H](c3ccccc3)[C@]1(C)C(=O)N2	14.5
COC(=O)C[C@@H]1CC[C@@H]2[C@@H](COc3ccc(NC(=O)Nc4cccc(C#N)c4)cc3C(=O)N2C)O1	9.17
CN1C(=O)c2cc(NC(=O)c3ccc(C(F)(F)F)cc3)ccc2OC[C@@H]2O[C@@H](CC(=O)NC3Cc4ccccc4C3)CC[C@H]21	4.43
COc1ccc(NC(=O)N2CCCCN3[C@@H](CO)[C@H](c4ccc(C5=CCCCC5)cc4)[C@@H]3C2)cc1	10.3
CC(C)(C)[S@](=O)N1Cc2cc(C(=O)NCC(F)(F)F)nc(-c3cccc(-c4cccc(F)c4)c3)c2[C@@H]1CCO	14.3
C(=Cc1c[nH]c2ccccc12)c1ccc2ccccc2n1	1.16
O=C(NC[C@@H]1N[C@@H](CO)[C@H]1c1ccc(C2=CCCCC2)cc1)c1cccc(F)c1	11.1
Oc1c(Cl)cc(Cl)c2cccnc12	5.58
CC(C)c1oc(=O)cc2c1[C@@H](O)[C@H]1OC(=O)[C@@]3(C)CC[C@@H](O)[C@@]2(C)C13 (some centres undefined)	19.3
C[C@@H]1CN([C@@H](C)CO)S(=O)(=O)c2ccc(C#Cc3ccncc3)cc2O[C@H]1CN(C)S(=O)(=O)c1ccccc1	12.4
CN=c1scc(-c2ccccc2F)n1/N=C/c1ccc[nH]1	10.1
C[C@H]1CCCCO[C@H](CN(C)Cc2ccc(C(F)(F)F)cc2)[C@@H](C)CN([C@@H](C)CO)C(=O)c2cc(NC(=O)Nc3ccccc3)ccc2O1	12.6

Structure (SMILES)	AC35 [µM]
COc1ccc(S(=O)(=O)N2CC[C@@H]3[C@H](CO)Nc4ccc(-c5ccc(C#N)cc5)cc4[C@@H]32)cc1	4.23
N#CC1C=Cc2c(ccc3ccccc23)N1C(=O)c1ccccc1 (centres undefined)	9.42
COc1ccc(/C=C/C(=O)c2cc(F)ccc2OC(=O)c2ccccc2OC)cc1OC	4.54
O=c1ccc2ccccc2c2ccccc12	6.04
CO[C@H]1CN(C)C(=O)c2cc(NC(=O)c3ccc(Oc4ccccc4)cc3)ccc2OC[C@H](C)NC[C@@H]1C	12.3
CCS(=O)(=O)N1Cc2ccccc2CC1C(=O)Nc1nnc(SCc2ccc(C#N)cc2)s1 (centres undefined)	12.5
C[C@@H]1CN([C@@H](C)CO)C(=O)Cc2cc(NC(=O)Nc3ccc(C(F)(F)F)cc3)ccc2O[C@@H]1CN(C)Cc1ccc(C(=O)Nc2ccccc2N)cc1	10.9
CCN1CCS/C1=C\C=C\C1=[N+](CC)CCS1	16.1
C=C1C(=O)[C@@]23[C@H](O)C[C@@H]4C(C)(C)CC[C@H](O)[C@@]4(C)[C@@H]2CC[C@@H]1[C@H]3O	3.15
CC(C)N1C/C(=C/c2ccsc2)C(=O)/C(=C/c2ccsc2)C1	5.27
C[C@@H]1O[C@@H](O[C@H]2C[C@@H](O)[C@]3(CO)[C@H]4[C@H](O)C[C@]5(C)[C@@H](C6COC(=O)C6)CC[C@]5(O)[C@@H]4CC[C@]3(O)C2)[C@H](O)[C@H](O)[C@H]1O (some centres undefined)	2.06
Brc1ccc(CSc2nnc(-c3ccco3)o2)cc1	6.49
Oc1cccc(-c2nnc(-c3cccc(O)c3)nn2)c1	11.9
COc1ccc(OC)c(/C=C/c2ccnc3ccccc23)c1	1.7
CN(C)c1ccc(/C=N/Nc2nc3ccccc3o2)cc1	20.9
c1ccc(Nc2nnc(-c3ccc4c(c3)OCO4)o2)cc1	11.9
Cc1sc2nc(CN3CCC(C)CC3)nc(Cl)c2c1C	10.7
CC(=NNc1cc(C)c2ccccc2n1)c1ccccn1	0.417
C[C@H](CO)N1C[C@H](C)[C@H](CN(C)Cc2ccc(C(=O)Nc3ccccc3N)cc2)Oc2ccc(N(C)C)cc2CC1=O	3.83
CN(C)c1ncnc2c1ccn2C1OC(CO)C(O)C1O (centres undefined)	2.94
